Measurements reported in the supplement of paper PMC10307832.

Experiments:
Test in all cases: relative viability (nuclei count vs DMSO), 5 days (fraction); higher = more cells survive
[1] = compound: O=c1ncccn1[C@@H]1O[C@H](CO)[C@@H](O)[C@H]1O [Zebularine] + O=C(c1cc(Cc2n[nH]c(=O)c3ccccc23)ccc1F)N1CCN(C(=O)C2CC2)CC1 [Olaparib] (partner 8 µM)
Method in brief: (§1)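 Relative viability was taken as the ratio of nuclei in treated wells to nuclei in vehicle wells. Lung cancer cell lines in 1536-well plates received compounds by pin tool one day after seeding, either one drug alone or a fixed anchor-drug dose plus five library-drug doses (not always all listed) in √10 steps. Nuclei were counted on 4× images after 5 days of treatment, and values are medians of duplicate plates.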

[2] = compound: O=c1ncccn1[C@@H]1O[C@H](CO)[C@@H](O)[C@H]1O [Zebularine] + C[C@@H](Oc1cc(-c2cnn(C3CCNCC3)c2)cnc1N)c1c(Cl)ccc(F)c1Cl [Crizotinib] (partner 1 µM)
Method in brief: as §1

[3] = compound: CC(C)CCN1c2nc(Nc3cc(F)c(O)c(F)c3)ncc2N(C)C(=O)C1C [BI-D1870] + C[C@]1(O)C[C@@H](c2nc(-c3ccc4ccc(-c5ccccc5)nc4c3)c3c(N)nccn32)C1 [Linsitinib] (partner 1 µM)
Method in brief: as §1

[4] = compound: O=c1ncccn1[C@@H]1O[C@H](CO)[C@@H](O)[C@H]1O [Zebularine] + Nc1nc2[nH]cc(CCc3ccc(C(=O)N[C@@H](CCC(=O)O)C(=O)O)cc3)c2c(=O)[nH]1 [Pemetrexed] (partner 0.2 µM)
Method in brief: as §1

Row | Cell Line | relative viability ([1]; first compound 1 µM) | relative viability ([1]; first compound 3.162 µM) | relative viability ([1]; first compound 10 µM) | relative viability ([1]; first compound 31.62 µM) | relative viability ([1]; first compound 100 µM) | relative viability ([2]; first compound 1 µM) | relative viability ([2]; first compound 3.162 µM) | relative viability ([2]; first compound 10 µM) | relative viability ([2]; first compound 31.62 µM) | relative viability ([2]; first compound 100 µM) | relative viability ([3]; first compound 0.04 µM) | relative viability ([3]; first compound 0.1265 µM) | relative viability ([3]; first compound 0.4 µM) | relative viability ([3]; first compound 1.265 µM) | relative viability ([3]; first compound 4 µM) | relative viability ([4]; first compound 1 µM) | relative viability ([4]; first compound 3.162 µM) | relative viability ([4]; first compound 10 µM) | relative viability ([4]; first compound 31.62 µM) | relative viability ([4]; first compound 100 µM)
1 | LU99A | 0.306 | 0.243 | 0.245 | 0.182 | 0.135 | 0.683 | 0.531 | 0.383 | 0.255 | 0.153 | 0.617 | 0.435 | 0.519 | 0.48 | 0.496 | 0.182 | 0.236 | 0.162 | 0.134 | 0.146
2 | HCC-827 | 0.752 | 0.607 | 0.487 | 0.415 | 0.252 | 1.07 | 0.907 | 0.785 | 0.647 | 0.339 | 0.992 | 0.959 | 0.982 | 0.977 | 0.895 | 0.328 | 0.254 | 0.229 | 0.243 | 0.235
3 | LK-2 | 0.884 | 0.714 | 0.335 | 0.259 | 0.221 | 0.217 | 0.236 | 0.266 | 0.209 | 0.23 | 0.616 | 0.518 | 0.512 | 0.497 | 0.457 | 0.321 | 0.298 | 0.173 | 0.253 | 0.131
4 | HCC-366 | 0.411 | 0.294 | 0.186 | 0.103 | 0.108 | 0.774 | 0.637 | 0.2 | 0.265 | 0.133 | 0.919 | 0.538 | 0.53 | 0.763 | 0.623 | 0.168 | 0.179 | 0.136 | 0.192 | 0.0894
